Assay results as given in patent publication US20070173539A1, “Use of malonomicin and analogs in fungicidal applications” (priority 2006, published 2007).

How the values were obtained:
Assay type in all cases: in vivo
[1] = test system: Puccinia recondita f. sp. tritici (PUCCRT); experiment: Brown Rust of Wheat Drop Line Test; settings: Drop Line Test 0.5 μg/leaf, 2 microliter drop on wheat leaf
Method: (§1) Brown Rust of Wheat (Puccinia recondita f. sp. tritici-PUCCRT) (1 DP) Wheat (cultivar Monon) was grown in plastic pots (6.2 cm×8.75 cm) containing 50 percent mineral soil, 50 percent Metro-Mix 360 (W.R Grace and Co.) until the seedlings were 10-20 cm tall. These plants were then sprayed to runoff with the test compound at a rate of 200 ppm. After 24 hours the test plants were inoculated by spraying with an aqueous spore suspension of Puccinia recondita f. sp. tritici (PUCCRT). The plants were then transferred to a dew chamber for 24 hours, then to the greenhouse until disease developed on the untreated control plants. In Example 3, a Drop Line Test was used, wherein instead of spraying the plant to runoff, a 2 microliter drop was placed on the wheat leaf and observed for disease control.

[2] = test system: Plasmopara viticola (PLASVI); experiment: Downy Mildew of Grape one day protectant (1DP); settings: grape (Carignane), sprayed to runoff, rate 200 ppm
Method: Final treatment volumes were obtained by adding 0.1 percent aqueous Ethomeen T25 or 0.1 percent aqueous Spraymate X77+0.1 percent wt./vol. ammonium sulfate^+. Downy Mildew of Grape (Plasmopara viticola-[…]) Vines (cultivar Carignane) were grown from seed in a soilless peat-based potting mixture “Metro-Mix 360” (W.R Grace and Co.) until the seedlings were 10-20 cm tall. These plants were then sprayed to runoff with the test compound at a rate of 200 ppm. After 24 hours the test plants were inoculated by spraying with an aqueous sporangia suspension of Plasmopara viticola ([…]). The plants were then transferred to a dew chamber for 24 hours, then to the greenhouse until disease developed on the untreated control plants.

[3] = test system: Phytophthora infestans (PHYTIN); settings: 1DP, tomato (rutgers), sprayed to runoff, rate 200 ppm
[4] = test system: Puccinia recondita f. sp. tritici (PUCCRT); experiment: Brown Rust of Wheat one day protectant (1DP); settings: wheat (Monon), sprayed to runoff, rate 200 ppm
Method: as §1, with “Final treatment volumes were obtained by adding 0.1 percent aqueous Ethomeen T25 or 0.1 percent aqueous Spraymate X77+0.1 percent wt./vol. ammonium sulfate^+. Brown” for “Brown”, “plants.” for “plants. In Example 3, a Drop Line Test was used, wherein instead of spraying the plant to runoff, a 2 microliter drop was placed on the wheat leaf and observed for disease control.”

[5] = test system: Leptosphaeria nodorum (LEPTNO); experiment: Glume Blotch of Wheat one day protectant (1DP); settings: wheat (Yuma), sprayed to runoff, rate 200 ppm
Method: Final treatment volumes were obtained by adding 0.1 percent aqueous Ethomeen T25 or 0.1 percent aqueous Spraymate X77+0.1 percent wt./vol. ammonium sulfate^+. Glume Blotch of Wheat (Leptosphaeria nodorum-[…]) Wheat (cultivar Yuma) was grown in plastic pots (6.2 cm×8.75 cm) containing 50 percent mineral soil, 50 percent Metro-Mix 360 (W.R Grace and Co.). until the seedlings were 10-20 cm tall. These plants were then sprayed to runoff with the test compound at a rate of 200 ppm. After 24 hours the test plants were inoculated by spraying with an aqueous spore suspension of Leptosphaeria nodorum ([…]). The plants were then transferred to a dew chamber for 24 hours, then to the greenhouse until disease developed on the untreated control plants.

[6] = test system: Septoria tritici (SEPTTR); experiment: Speckled Leaf Blotch of Wheat one day protectant (1DP); settings: wheat (Monon), sprayed to runoff, rate 200 ppm
Method: Final treatment volumes were obtained by adding 0.1 percent aqueous Ethomeen T25 or 0.1 percent aqueous Spraymate X77+0.1 percent wt./vol. ammonium sulfate^+. Speckled Leaf Blotch of Wheat (Septoria tritici-[…]) Wheat (cultivar Monon) was grown in plastic pots (6.2 cm×8.75 cm) containing 50 percent mineral soil, 50 percent Metro-Mix 360 (W.R Grace and Co.) until the seedlings were 10-20 cm tall. These plants were then sprayed to runoff with the test compound at a rate of 200 ppm. After 24 hours the test plants were inoculated by spraying with an aqueous spore suspension of Septoria tritici ([…]). The plants were then transferred to a dew chamber for 24 hours, then to the greenhouse until disease developed on the untreated control plants.

[7] = test system: Erysiphe graminis f. sp. tritici (ERYSGT); experiment: Powdery Mildew of Wheat one day protectant (1DP); settings: wheat (Monon), sprayed to runoff, rate 200 ppm
Method: Final treatment volumes were obtained by adding 0.1 percent aqueous Ethomeen T25 or 0.1 percent aqueous Spraymate X77+0.1 percent wt./vol. ammonium sulfate^+. Powdery Mildew of Wheat (Erysiphe graminis f. sp. tritici-[…]) Wheat (cultivar Monon) was grown in plastic pots (6.2 cm×8.75 cm) containing 50 percent mineral soil, 50 percent Metro-Mix 360 (W.R Grace and Co.) until the seedlings were 10-20 cm tall. These plants were then sprayed to runoff with the test compound at a rate of 200 ppm. After 24 hours the test plants were inoculated with Erysiphe graminis f. sp. tritici ([…]) by dusting spores from stock plants onto the test plants. The plants were then transferred to the greenhouse until disease developed on the untreated control plants.

SMILES	PUCCRT percent control of plant disease [1]	PLASVI percent control of plant disease [2]	PHYTIN percent control of plant disease [3]	PUCCRT percent control of plant disease [4]	LEPTNO percent control of plant disease [5]	SEPTTR percent control of plant disease [6]	ERYSGT percent control of plant disease [7]
C[C@H](N)C(=O)NC(CC(=O)O)(CC(=O)C1C(=O)N[C@@H](CN)C1=O)C(=O)O (some centres unmarked) [Compound III]	+ (+ = 30-74 percent control of plant disease)	–	–	–	–	–	–
C[C@H](N)C(=O)NC(CC(=O)C1=C(O)[C@H](CN)NC1=O)(C(=O)O)C(=O)O [Compound II]	–	− (− = 0-29 percent control of plant disease)	+ (+ = 30-74 percent control of plant disease)	++ (++ = 75-100 percent control of plant disease)	− (− = 0-29 percent control of plant disease)	+ (+ = 30-74 percent control of plant disease)	− (− = 0-29 percent control of plant disease)
NC[C@@H]1NC(=O)C(C(=O)CC(CC(=O)O)(NC(=O)[C@@H](N)CO)C(=O)O)=C1O (some centres unmarked) [Compound VI]	–	–	− (− = 0-29 percent control of plant disease)	++ (++ = 75-100 percent control of plant disease)	− (− = 0-29 percent control of plant disease)	+ (+ = 30-74 percent control of plant disease)	− (− = 0-29 percent control of plant disease)
NC[C@@H]1NC(=O)C(C(=O)CC(CC(=O)O)(NC(=O)[C@@H](N)CO)C(=O)O)=C1O (some centres unmarked) [Compound V]	–	–	+ (+ = 30-74 percent control of plant disease)	++ (++ = 75-100 percent control of plant disease)	− (− = 0-29 percent control of plant disease)	− (− = 0-29 percent control of plant disease)	− (− = 0-29 percent control of plant disease)
